From paper PMC3984054 (Bioorganic & medicinal chemistry, 2013)
Read-outs that look alike come from different tables or passages of the source. Marks after values point to notes of the source that are not given here.

Columns and labels:
[1] = system: PrP^Sc in dividing ScN2a-cl3 cells; test: cells; assay type: cell-based, mouse; details: for EC50: Mus musculus
in vitro = details: mouse
[2] = system: PrP^Sc in stationary-phase ScN2a-cl3 cells; assay type: cell-based, mouse
[3] = system: PrP^Sc in stationary-phase cells; details: cited from earlier work
PrP^Sc in dividing cells = details: cited from earlier work
in vivo = details: female, FVB, mouse, po, 10 mg/kg, Cmax ± SD
[4] = read-out: EC50 in dividing cells (text and footnote)

In the case of `Nc1c(/N=N/c2ccc(-c3ccc(/N=N/c4cc(S(=O)(=O)[O-])c5ccccc5c4N)cc3)cc2)cc(S(=O)(=O)[O-])c2ccccc12.[Na+].[Na+]` [Congo Red, reference compound], the “antiprion potency in dividing cells” value [1] is reported as “good potency”, the EC50 [1, 4] is reported as ~400 nM and the “effect on cell viability” value (dividing ScN2a-cl3 cells) is reported as “no effects on cell viability”.
In the case of Enoxaparin [reference compound], the “EC50 ± SEM (antiprion activity by ELISA)” value [1] is reported as >10 (mg/L) and the “LC50 ± SEM (cell viability by calcein)” value (dividing ScN2a-cl3 cells) is reported as >10 (mg/L).
With `COc1cccc(Nc2nc(N)c3ccccc3n2)c1` [IND35916] the EC50 [1, 4] was > 1000 nM.
For `Cn1c(=N)n(CC(=O)c2ccc(Cl)cc2)c2ccccc21` [IND26326], the EC50 [1, 4] was > 1000 nM.
With `CC(=O)c1ccc(NC(=O)c2sc3nc4c(cc3c2N)CCCC4)cc1` [IND24609] the “antiprion potency in dividing cells” value [1] was “inactive”.
Work on `CC(NCCC(c1ccccc1)c1ccccc1)c1ccccc1` (stereo not shown) [Fendiline] yielded an EC50 (in vitro) of 4300 to 9600 nM.
With `COc1ccc2cc3c(N)c(C(=O)Nc4ccc(C(C)=O)cc4)sc3nc2c1` [IND52025] the EC50 [1, 4] was < 1000 nM.
In the case of `COc1ccc(CCNC(=O)c2sc3nc(-c4cccs4)ccc3c2N)cc1OC` [IND42103], the “antiprion potency in dividing cells” value [1] is reported as “inactive”.
With `CCOc1ccc(NC(=O)c2cc3ccccc3cc2O)cc1` [IND31751] the EC50 [1, 4] was < 1000 nM.
In the case of `COc1cc(CNCCO)cc(Br)c1OCc1ccccc1Cl` [IND46380], the EC50 [1, 4] is reported as > 1000 nM.
For `CCOc1ccc(/N=N/c2ccc(N)cc2N)cc1` [Ethoxazine], the CC50 (dividing ScN2a-cl3 cells) was > 10000 nM.
With `COc1ccc(-c2cc(-c3ccc(OC)cc3O)[nH]n2)cc1` [IND25807] the EC50 [1, 4] was < 1000 nM.
For `Cc1ccc2[nH]c3c(c2c1)CCCC3NCCCN(C)C` (stereo not shown) [IND23308], the “Reduction (%) Stationary PrP^Sc” value [2] was 94 ^c %, the “percent reduction in PrP^Sc in the HTS” value [2] was 70% and the “effect on cell viability” value (dividing ScN2a-cl3 cells) was “no effect on cell viability”.
For `CCN(CC)CCCC(C)Nc1c2ccc(Cl)cc2nc2ccc(OC)cc12` (stereo not shown) [quinacrine], the “activity in stationary-phase cells” value [3] is given as “relatively ineffective” and the “activity in dividing cells” value (PrP^Sc in dividing cells) is given as “rapidly cleared”.
`N#Cc1sc2nc(-c3ccc4c(c3)OCO4)ccc2c1N` [IND52851] showed a Cmax (in vivo; brain) of 1020 ± 710 nM and a Cmax (in vivo; plasma) of 410 ± 250 nM.
In the case of `c1cncc(-c2nc(-c3c[nH]c4ccccc34)cs2)c1` [IND24350], the EC50 [1, 4] is reported as < 1000 nM.
In the case of `COc1ccc(-c2nc3cc(NC(=O)c4ccc(OCc5ccccc5)cc4)ccc3o2)cc1` [IND114202], the EC50 [1, 4] is reported as < 1000 nM.
With `CN1CCc2cccc3c2[C@H]1Cc1ccc(O)c(O)c1-3` [Apomorphine, reference compound] the EC50 ([1]; read-out: EC50 ± SEM (antiprion activity by ELISA)) was > 10000 nM.
With `CN(C)CCNc1nc(-c2ccc(Cl)cc2)nc2ccccc12` [IND34921] the EC50 [1, 4] was > 1000 nM.
For `COc1cc(N)c(-c2ccc3cc(OC)c(OC)cc3n2)cc1OC` [IND44355], the EC50 [1, 4] was > 1000 nM.
In the case of `COc1ccc(C(=O)Nc2ccc(-c3csc(C)n3)cc2)cc1` [IND33145], the EC50 [1, 4] is reported as < 1000 nM.
For Dextran [reference compound], the “EC50 ± SEM (antiprion activity by ELISA)” value [1] was 0.40 ± 0.08 (mg/L) and the “antiprion potency in dividing cells” value [1] was “good potency”.
In the case of `CN1CCN(c2ccc(Nc3ccnc4cc(Cl)ccc34)cc2)CC1` [IND45193], the Cmax (in vivo; brain) is reported as 1610 ± 230 nM, the Cmax (in vivo; plasma) is reported as 130 ± 10 nM and the EC50 [1, 4] is reported as > 1000 nM.
Work on `COc1ccc2cc1Oc1ccc(cc1)C[C@H]1c3cc(c(OC)cc3CCN1C)Oc1c(OC)c(OC)cc3c1[C@H](C2)N(C)CC3` [Tetrandine] yielded a CC50 (dividing ScN2a-cl3 cells) of 5000 to 6100 nM.
With `COc1ccccc1OCCNCC(O)COc1cccc2[nH]c3ccccc3c12` (stereo not shown) [Carvedilol] the CC50 (in vitro) was 5000 to 6100 nM.
For `OCCNCc1cc(Br)ccc1OCc1ccc(Cl)cc1Cl` [IND34452], the EC50 [1, 4] was > 1000 nM.
With `Cn1c(=N)n(CC(=O)c2ccc(Br)cc2)c2ccccc21` [IND44723] the EC50 [1, 4] was > 1000 nM.
